Results from paper PMC9096165 (Frontiers in Pharmacology, 2022).

Key:
CXCR2 = CXCR2 mRNA expression in F11 cells (RT PCR); format: cell-based; settings: CYP 100 nM alone
Excerpt: (§1) For these experiments, cells at 18th passage were used.
(§2) Triplicate samples were run for each gene.

TRPV1 [1] = test: TRPV1 protein level in F11 cells (Western blotting); format: cell-based; settings: CYP 100 nM alone
Excerpt: as §1, §2
Control and treated F11 cells were collected and lysed in an ice-cold RIPA buffer containing protease and phosphatase inhibitor cocktail (Sigma-Aldrich, United States). The extracted proteins were quantified using BCA assay (Thermo, United States). NuPAGE lithium dodecyl sulfate sample buffer (Cat#NP007, Thermo, United States) and NuPAGE sample reducing agent (Cat#NP0004, Thermo, United States) were added to the samples and then put in the Thermoblock (Eppendorf, United Kingdom) at 75°C for 10 min. Protein lysates (30 μg) were separated on NuPAGE bis–tris glycine gradient precast gel (Cat#NP0321PK2, Invitrogen, United States) and electroblotted on a PVDF membrane (Cat#IPVH00010, Millipore, United States) using a semi-dry system (Thermo, United States). Non-specific binding sites were blocked by blocking solution (Cat#000105, Invitrogen, United States) for 15 min at RT. […] The relative densities of the immunoreactive bands were determined and normalized with respect to actin, using Fiji software. […]

TRPV1 [2] = test: TRPV1 mRNA expression in F11 cells (RT PCR); format: cell-based; settings: CYP 100 nM alone
Excerpt: as §1, §2

F11 cells = test: F11 cell viability (CellTiter AQueous One); format: cell-based; settings: differentiated F11 cells, 24 h, 5 to 200 nM
Description: as §1
[…] Cell viability was determined using the colorimetric method CellTiter AQueous One Solution Cell Proliferation Assay (Promega Corporation, United States), as previously reported ([Brandolini et al., 2017]). The quantity of formed formazan, as a function of viability, was measured at 492 nm using an ELISA plate reader, Infinite F200 (Tecan, Männedorf, Swiss). The results from five independent experiments were expressed as absorbance at 492 nm.

urinary bladder = format: in vivo; settings: chronic CYP 75 mg kg^−1 i.p. three times every third day
Description: CYP was administered to the animals by the intraperitoneal (i.p.) route (5 ml kg^−1) at the dosage of 75 mg kg^−1 for three times every third day to elicit chronic bladder irritation, as previously described ([Vizzard et al., 1996]).
Animals pre-treated with the vehicle or a single high oral dose of DF2755A (20 mg kg^−1; 12 h before the first CYP administration) followed by repeated lower doses administration (7 mg kg^−1 twice daily for 7 days) during IC development were deeply anesthetized with isoflurane (4%) and then killed.
After killing, rat abdomen was opened through a midline incision, and bladder and proximal urethra were exposed. A catheter was inserted into the bladder through the urethra and a loose ligature was placed around the neck of the urinary bladder. Bladder was inflated with saline via the catheter to slightly distend the bladder and ligature was tightened to maintain proper distension. Bladder was then excised cutting above the insertion point of ureters, and therefore the bladder neck was not included into the bladder sample. Bladders were opened using scissors and, after gross macroscopic evaluation and weighing, each bladder was cut into two equal pieces (named B1 and B2) and weighted again individually. One piece (B1) was placed in Eppendorf, then snap-frozen in liquid nitrogen, and stored at −80°C until quantification using ELISA assay. The second piece (B2) was placed in 10% formalin and stored at room temperature. Then the same samples were placed in 70% ethanol, then processed in paraffin blocks, and then trimmed according to the longitudinal plane to ensure the correct analysis of all the bladder sample. Sections were stained with hematoxylin and eosin (HE), and slides were then digitalized using a Pathscan® Touch scanner in the bright field mode with a ×20 objective. For the microscopic observations of bladder inflammation, the following parameters were analyzed: bladder edema in scores (n = 10/group), bladder hemorrhage in scores (n = 10/group), urothelial loss in scores (n = 10/group), and total inflammatory score, which was calculated by adding all the individual lesion scores (n = 10/group).

TRPV4 = settings: F11 cells, CYP 100 nM alone
Description: F11 hybridoma cell line (ECACC 08062601), chosen as a model of dorsal root ganglion (DRG) neurons ([Platika et al., 1985]; [Brandolini et al., 2017]) was cultivated in DMEM (Corning, United States) supplemented with 10% heat-inactivated FBS (Sigma-Aldrich St. Louis, CO, United States), 1% penicillin/streptomycin, and 1% glutamine (Sigma-Aldrich, United States) at 37°C, in a humidified 95% air and 5% CO2 atmosphere. For these experiments, cells at 18th passage were used. Cells were differentiated with the rat nerve growth factor (rNGF; Sigma-Aldrich, United States). rNGF was dissolved in DMEM with 1% penicillin/streptomycin and 1% glutamine (FBS free) at the final concentration of 50 ng ml^−1. Medium was replaced every 3 days until complete differentiation, which occurred after 7 days.
TRPV1 and TRPV4 mRNA expression and protein levels and CXCR1, CXCR2, and CXCL1 mRNA levels were evaluated in F11 cells exposed to CYP. […] The total RNA concentration was determined in RNAase-free water using Nanodrop, while the concentration was determined using the Qubit Fluorometer 3.0 (Thermo, United States). […] Relative expression levels were calculated for each sample after normalization against the reference gene, using the 2^−ΔΔCt method for comparing relative fold expression differences.

CXCL1 = CXCL1 mRNA expression in F11 cells (RT PCR); format: cell-based; settings: CYP 100 nM alone
Excerpt: as §1, §2

CXCR1 = CXCR1 mRNA expression in F11 cells (RT PCR); format: cell-based; settings: CYP 100 nM alone
Excerpt: as §1, §2

[3] = system: acute CYP-induced IC model; design: method as in Dornelles et al., 2014; settings: acute CYP-induced IC rat model with inflammatory bladder infiltrate; ref Dornelles et al., 2014; cited from earlier work

SMILES	CXCR2 mRNA expression versus control (CXCR2)	TRPV1 protein level versus control (TRPV1 [1])	TRPV1 mRNA expression versus control (TRPV1 [2])	neuronal cell viability (F11 cells)	bladder hemorrhage (urinary bladder)	inflammatory infiltrate and urothelial hyperplasia in urinary bladder (urinary bladder)	bladder edema, mean score (urinary bladder; score 0–4 (Table 1))	urothelial loss, mean score (urinary bladder; score 0–4 (Table 1))	TRPV4 mRNA expression versus control (TRPV4)	CXCL1 mRNA expression versus control (CXCL1)	CXCR1 mRNA expression versus control (CXCR1)	effect on nociceptive behavior [3]
O=P1(N(CCCl)CCCl)NCCCO1 (stereo not drawn) [CYP, Cyclophosphamide, reference compound]	significantly increased	increased	significantly increased	did not modulate neuronal cell viability	no hemorrhage	no inflammatory infiltrate and no urothelial hyperplasia	0.4 ± 0.16	0.1 ± 0.10	did not change	significantly increased	significantly increased	–
O=C(Nc1ccc([N+](=O)[O-])cc1O)Nc1ccccc1Br [SB225002]	–	–	–	–	–	–	–	–	–	–	–	antinociceptive effect
